For orientation: MIC means the smallest concentration in the dilution series that meets the test's criterion for growth inhibition.

Holding throughout (assay): ≥ marks a high value that may be exact or a test limit, other limits are often not marked, values filed in µg/mL are converted to µM
The test system of test [1] is Burkholderia thailandensis.
Test [2] deals with Bacillus subtilis ATCC 9372.
Test [3] has as its system Bacillus anthracis Sterne 34F2.
Test [4] relates to Cronobacter sakazakii DSM 4485.
The test system of test [5] is Staphylococcus aureus RF122.
Test [6] relates to Staphylococcus aureus SA113.
Test [7] deals with Cronobacter sakazakii DPC 6440.
Test [8] relates to Staphylococcus aureus Newman.
For test [9], the system named is Escherichia coli NCIMB 11843.
The subject of test [10] is Salmonella enterica subsp. enterica serovar Typhimurium LT2.
Test [11] relates to Staphylococcus aureus RN4220.
Test [12] concerns Staphylococcus aureus NCTC 8325-4.
The test system of test [13] is Cronobacter muytjensii ATCC 51329.
Test [14] deals with Cronobacter sakazakii ATCC BAA-894.
The subject of test [15] is Klebsiella pneumoniae NCIMB 13218.
In test [16] the test system is Pseudomonas fluorescens NCIMB 9046.
Test [17] relates to Staphylococcus epidermidis ATCC 12228.
For test [18], the system named is Klebsiella aerogenes ATCC 13048.
Another test concerns Escherichia coli DL7.
In a further test the test system is Bacillus subtilis PS832.
The subject of test [19] is Pseudomonas aeruginosa ATCC 27853.
In test [20] the test system is Escherichia coli ATCC 25922.
Test [21] has as its system Pseudomonas aeruginosa LCCI.
In test [22] the test system is Pseudomonas aeruginosa ATCC 10419.
The test system of test [23] is Pseudomonas aeruginosa ATCC 21625.
In test [24] the test system is Staphylococcus aureus ATCC 29213.
Test [25] deals with Pseudomonas aeruginosa ATCC 21630.
The test system of test [26] is Pseudomonas aeruginosa LCCE.
Test [27] concerns Pseudomonas aeruginosa LC.
Test [28] concerns Pseudomonas aeruginosa LCGE.
Test [29] concerns Salmonella enterica subsp. enterica serovar Typhimurium C77-31.
In test [30] the test system is Acinetobacter baumannii ATCC 17978.
For test [31], the system named is Klebsiella pneumoniae ATCC 13883.
Test [32] concerns Escherichia coli NCTC 12923.
Test [33] relates to Pseudomonas aeruginosa PAO1.
Test [34] has as its system Staphylococcus aureus USA 300.
Test [35] deals with Pseudomonas aeruginosa ATCC BAA-2114.
Test [36] concerns Staphylococcus aureus ATCC 33591.
In test [37] the test system is Klebsiella pneumoniae NCTC 13368.
In test [38] the test system is Salmonella enterica subsp. enterica serovar Choleraesuis ATCC 10708.
Test [39] has as its system Pseudomonas aeruginosa ATCC 9027.
In test [40] the test system is Staphylococcus aureus ATCC 43300.
Test [41] relates to Enterococcus faecalis ATCC 19433.
The subject of test [42] is Staphylococcus aureus ATCC 9144.

Converted amounts (≈) assume the structure as drawn. “And” between values parts separate entries of the source, which are not always exact repeats. Identical values can stand only once.

On to `CSCC[C@H](NC(=O)[C@H](CO)NC(=O)[C@H](Cc1ccc(O)cc1)NC(=O)[C@H](CO)NC(C)=O)C(=O)N[C@@H](CCC(=O)O)C(=O)N[C@@H](Cc1cnc[nH]1)C(=O)N[C@@H](Cc1ccccc1)C(=O)N[C@@H](CCCN=C(N)N)C(=O)N[C@@H](Cc1c[nH]c2ccccc12)C(=O)NCC(=O)N[C@@H](CCCCN)C(=O)N1CCC[C@H]1C(=O)N[C@H](C(N)=O)C(C)C` [SYSMEHFRWGKPV], for which the figures for the MIC in test [1], in test [2] and in test [3] were at least 50 µM, at least 100 µM and at least 100 µM, respectively.

For the compound `CC(C)C[C@H](NC(=O)CNC(=O)[C@H](CCC(N)=O)NC(=O)[C@H](Cc1cnc[nH]1)NC(=O)[C@H](CCCCN)NC(=O)[C@H](C)N)C(=O)N1CCC[C@H]1C(=O)N[C@@H](CCC(N)=O)C(=O)N[C@@H](CCC(=O)O)C(=O)O` [AKHQGLPQE], the MIC is at least 1250 µM in [4]; at least 2500 µM in test [5]; at least 2500 µM in test [6]; at least 1250 µM in test [7]; at least 2500 µM in test [8]; at least 2500 µM in test [9]. Further, the MIC in test [10] is at least 2500 µM; in test [11], at least 2500 µM; in [12] it was at least 1250 µM; in test [13], at least 1250 µM; in [14], at least 1250 µM; in [15], at least 2500 µM. The compound further registered an MIC in [16] of at least 2500 µM.

As to `CC(C)C[C@H](NC(=O)CNC(=O)[C@H](C)NC(=O)[C@H](CCCN=C(N)N)NC(=O)[C@H](Cc1cnc[nH]1)NC(=O)CNC(=O)CN)C(=O)N[C@@H](CCC(N)=O)C(=O)N[C@@H](Cc1ccccc1)C(=O)N1CCC[C@H]1C(=O)N[C@H](C(=O)NCC(=O)N[C@@H](CCCN=C(N)N)C(=O)N[C@H](C(=O)N[C@@H](Cc1cnc[nH]1)C(=O)N[C@@H](CCCN=C(N)N)C(=O)N[C@@H](CC(C)C)C(=O)N[C@@H](CC(C)C)C(=O)N[C@@H](CCCN=C(N)N)C(=O)N[C@@H](CCCCN)C(N)=O)C(C)C)C(C)C` [GGHRAGLQFPVGRVHRLLRK], the MIC is 16 µM (≈ 36.1 µg/mL) in test [17]; at least 32 µM in test [18]; 16 µM and 8 µM with Escherichia coli DL7; 4 µM (≈ 9.01 µg/mL) in the test on Bacillus subtilis PS832.

As for `CC[C@H](C)[C@H](NC(=O)[C@H](CCCCN)NC(=O)[C@H](CCCCN)NC(=O)[C@H](CC(C)C)NC(=O)[C@H](CCCN=C(N)N)NC(=O)[C@H](CCCCN)NC(=O)[C@H](CCCN=C(N)N)NC(=O)[C@H](Cc1ccccc1)NC(=O)[C@H](CCCCN)NC(=O)[C@H](CCCCN)NC(=O)[C@H](CCCN=C(N)N)NC(=O)[C@H](CC(C)C)NC(=O)[C@H](CCCN=C(N)N)NC(=O)[C@H](CCCN=C(N)N)NC(=O)[C@H](Cc1ccccc1)NC(=O)[C@@H](N)CCCN=C(N)N)C(N)=O` [RFRRLRKKFRKRLKKI], the MIC in [19] is 256 µM (≈ 571 µg/mL); in test [20] it was 64 µM (≈ 143 µg/mL); in test [17] it was 32 µM (≈ 71.3 µg/mL); in test [21], at least 256 µM; in test [22], at least 256 µM; in test [23] it was at least 256 µM. Further, the MIC in [24] was 128 µM (≈ 285 µg/mL); in test [25], at least 256 µM; in test [26] it was at least 256 µM; in [27], at least 64 µM; in [28], at least 256 µM; in test [29] it was at least 128 µM.

In the case of `CC[C@H](C)[C@H](NC(=O)[C@H](C)NC(=O)[C@H](CCCCN)NC(=O)[C@@H]1CCCN1C(=O)[C@@H](NC(=O)[C@H](CC(C)C)NC(=O)[C@H](CCCCN)NC(=O)[C@H](Cc1ccccc1)NC(=O)[C@H](CC(C)C)NC(=O)[C@@H](N)Cc1ccccc1)[C@@H](C)CC)C(=O)N[C@@H](CCCCN)C(=O)N[C@@H](CCCCN)C(=O)N[C@@H](CC(C)C)C(=O)N[C@H](C(=O)N[C@@H](CO)C(=O)N[C@@H](CCCCN)C(=O)N[C@@H](Cc1ccccc1)C(=O)N[C@@H](CCCCN)C(=O)O)[C@@H](C)CC` [FLFKLIPKAIKKLISKFK], the MIC in test [30] was found to be 1.85 µM (≈ 4 µg/mL); in [31], 5 µM (≈ 10.8 µg/mL); in test [19], 35 µM (≈ 75.7 µg/mL); in [20] it was 7.5 µM (≈ 16.2 µg/mL); in test [17], 5 µM (≈ 10.8 µg/mL); in [32], 1.85 µM (≈ 4 µg/mL). The MIC is 14.8 µM (≈ 32 µg/mL) in [33]; 3.7 µM (≈ 8 µg/mL) in [34]; at least 35 µM in test [35]; 5 µM and 3 µM in test [36]; 5 µM and 3 µM in test [24]; 7.4 µM (≈ 16 µg/mL) in [37]. Also, the MIC in test [38] turned out to be 7.5 µM (≈ 16.2 µg/mL); in test [39], 5 µM (≈ 10.8 µg/mL); in test [40], 5 µM (≈ 10.8 µg/mL); in [41], 5 µM (≈ 10.8 µg/mL); in test [42], 1.85 µM (≈ 4 µg/mL).

For the origin of these results see DBAASP.
